Laboratory results published in patent publication US20250179440A1, “METHOD FOR CULTURING CANCER ORGANOID AND METHOD FOR SCREENING TEST SUBSTANCE” (TOPPAN Holdings Inc., priority 2022, published 2025).

Test system: blood vessel network of the cell structure (HUVEC/NHDF)
Assay: Blood vessel network formation in the cell structure co-cultured with PDOs (anti-CD31 immunostaining)
Format: cell-based, human
Conditions: added factor of EGM2 added singly to DMEM and EBM2; FIGS. 9 and 10
Protocol: The pre-culture of the patient-derived PDOs and the preparation of the cell structure were performed by the same method as in Example 1. For the co-culture of the PDOs and the cell structure, a method for top surface culture of the cell structure using single-celled PDOs was adopted. In addition, regarding the sample for which the culture was continued, the co-culture of the PDOs and the cell structure was performed by the same method as in Example 1, except that the medium was replaced using each medium at a timing of once every three or four days. Fluorescence immunostaining, image capturing, and image analysis were performed by the same methods as in Example 1. Next, in order to identify the inhibitory factors among the added factors, media obtained by adding each of the added factors of EGM2 shown in Table 7 to D-MEM and EBM2, and media obtained by excluding each of the added factors shown in Table 7 from EGM2 were prepared, and vascular network evaluation was performed. The scale bars in FIGS. 9 and 10 indicate 500 μm. […] In FIG. 10, +means that the added factor is included, and −means that the added factor is excluded.

## C[C@]12CCC(=O)C=C1CC[C@@H]1[C@@H]2[C@@H](O)C[C@@]2(C)[C@H]1CC[C@]2(O)C(=O)CO [Hydrocortisone]
  formation of the blood vessel network: the formation of the blood vessel network was suppressed
